Laboratory results from US20070128217A1 (priority 2003, published 2007).

What was measured:
[1] = system: antibodies in sera from SARS patients (sera 1a, 1b, 2, 6, 37, 62, London, SARS-yellow, SARS-green); assay type: binding, human; set-up: Binding of serum 6 to linear peptides of protein X1 of SARS-CoV Urbani / Binding of serum 37 to linear peptides of protein X1 of SARS-CoV Urbani / Binding of serum 6 to looped/cyclic peptide (PEPSCAN-ELISA) / Binding of serum 37 to looped/cyclic peptide (PEPSCAN-ELISA) / Binding of serum 37 to looped/cyclic peptides of protein X1 of SARS-CoV Urbani / Binding of serum 6 to linear peptides of protein X2 / Binding of serum 37 to linear peptides of protein X2 / Binding of serum 37 to looped/cyclic peptides of protein X2 of SARS-CoV Urbani / Binding of serum 6 to linear peptides of protein M of SARS-CoV Urbani / Binding of serum 37 to linear peptides of protein M of SARS-CoV Urbani / Binding of serum 6 to looped/cyclic peptides of protein M of SARS-CoV Urbani / Binding of serum 37 to looped/cyclic peptides of protein M of SARS-CoV Urbani / Binding of serum 6 to linear peptides of protein X3 of SARS-CoV Urbani / Binding of serum 37 to linear peptides of protein X3 of SARS-CoV Urbani / Binding of serum 37 to looped/cyclic peptides of protein X3 of SARS-CoV Urbani / Binding of serum 6 to linear peptides of protein X4 of SARS-CoV Urbani / Binding of serum 37 to linear peptides of protein X4 of SARS-CoV Urbani / Binding of serum 37 to looped/cyclic peptides of protein X4 of SARS-CoV Urbani / Binding of serum 6 to linear peptides of protein X5 of SARS-CoV Urbani / Binding of serum 37 to linear peptides of protein X5 of SARS-CoV Urbani / Binding of serum 37 to looped/cyclic peptides of protein X5 of SARS-CoV Urbani / Binding of serum 6 to linear peptides of protein N of SARS-CoV Urbani / Binding of serum 37 to linear peptides of protein N of SARS-CoV Urbani / Binding of serum 6 to linear peptide (PEPSCAN-ELISA) / Binding of serum 1a to looped/cyclic peptides of protein N of SARS-CoV Urbani / Binding of serum 1b to looped/cyclic peptides of protein N of SARS-CoV Urbani / Binding of serum 2 to looped/cyclic peptides of protein N of SARS-CoV Urbani / Binding of serum 6 to looped/cyclic peptides of protein N of SARS-CoV Urbani / Binding of serum 37 to looped/cyclic peptides of protein N of SARS-CoV Urbani / Binding of serum 62 to looped/cyclic peptides of protein N of SARS-CoV Urbani / Binding of serum London to looped/cyclic peptides of protein N of SARS-CoV Urbani / Binding of serum SARS-green to looped/cyclic peptides of protein N of SARS-CoV Urbani: unit not given here
[2] = system: control sera (pooled serum of ten healthy LUMC hospital workers; commercial negative donor pooled serum from the Dutch bloodbank); assay type: binding, human; set-up: Binding of Control serum LUMC to linear peptides / Binding of Control serum Blood-bank to linear peptides / Binding of Control serum LUMC to looped peptides / Binding of Control Serum Blood-Bank to Looped peptides / Binding of Control serum LUMC to linear peptides of the protein M of SARS-CoV Urbani / Binding of Control serum Blood-bank to linear peptides of the protein M of SARS-CoV Urbani / Binding of Control serum LUMC to looped peptides of the protein M of SARS-CoV Urbani / Binding of Control Serum Blood-Bank to Looped peptides of the protein M of SARS-CoV Urbani: unit not given here
[3] = system: rabbit serum obtained by immunizing a rabbit with the SARS-CoV strain Frankfurt 1; assay type: binding; set-up: Binding of a rabbit serum to linear peptides / Binding of a rabbit serum to looped peptides / Rabbit serum linear peptides / Rabbit serum looped peptides / Binding of a rabbit serum to linear peptides of protein N of SARS-CoV Urbani (Rabbit serum linear peptides) / Binding of a rabbit serum to looped/cyclic peptides of protein N of SARS-CoV Urbani (Rabbit serum looped peptides): unit not given here

## ATSRTLSYYKLGASQ
[1]
  Binding of serum 1a to linear peptides of protein M of SARS-CoV Urbani: 0.7
  Binding of serum 1a to looped/cyclic peptides of protein M of SARS-CoV Urbani: 0.8
  Binding of serum 1b to linear peptides of protein M of SARS-CoV Urbani: 0.5
  Binding of serum 1b to looped/cyclic peptides of protein M of SARS-CoV Urbani: 0.2
  Binding of serum 2 to linear peptides of protein M of SARS-CoV Urbani: 0.7
  Binding of serum 2 to looped/cyclic peptides of protein M of SARS-CoV Urbani: 0.6
  Binding of serum 6 to linear peptides of protein M of SARS-CoV Urbani: 0.3
  Binding of serum 6 to looped/cyclic peptides of protein M of SARS-CoV Urbani: 0.8
  Binding of serum 37 to linear peptides of protein M of SARS-CoV Urbani: 0.8
  Binding of serum 37 to looped/cyclic peptides of protein M of SARS-CoV Urbani: 0.6
  Binding of serum 62 to linear peptides of protein M of SARS-CoV Urbani: 0.7
  Binding of serum 62 to looped/cyclic peptides of protein M of SARS-CoV Urbani: 0.5
  Binding of serum London to linear peptides of protein M of SARS-CoV Urbani: 0.3
  Binding of serum London to looped/cyclic peptides of protein M of SARS-CoV Urbani: 0.3
  Binding of serum SARS-green to linear peptides of protein M of SARS-CoV Urbani: 0.2
  Binding of serum SARS-green to looped/cyclic peptides of protein M of SARS-CoV Urbani: 0.3
  Binding of serum SARS-yellow to linear peptides of protein M of SARS-CoV Urbani: 0.1
  Binding of serum SARS-yellow to looped/cyclic peptides of protein M of SARS-CoV Urbani: 0.7
[2]
  Binding of Control Serum Blood-Bank to Looped peptides of the protein M of SARS-CoV Urbani: 0.6
  Binding of Control serum Blood-bank to linear peptides of the protein M of SARS-CoV Urbani: 0.7
  Binding of Control serum LUMC to linear peptides of the protein M of SARS-CoV Urbani: 0.3
  Binding of Control serum LUMC to looped peptides of the protein M of SARS-CoV Urbani: 0.6
[3]
  Rabbit serum linear peptides: 0.6
  Rabbit serum looped peptides: 0.4

## AVYRINWVTGGIAIA
[1]
  Binding of serum 1a to linear peptides of protein M of SARS-CoV Urbani: 0.7
  Binding of serum 1a to looped/cyclic peptides of protein M of SARS-CoV Urbani: 0.8
  Binding of serum 1b to linear peptides of protein M of SARS-CoV Urbani: 0.6
  Binding of serum 1b to looped/cyclic peptides of protein M of SARS-CoV Urbani: 0.4
  Binding of serum 2 to linear peptides of protein M of SARS-CoV Urbani: 0.6
  Binding of serum 2 to looped/cyclic peptides of protein M of SARS-CoV Urbani: 0.6
  Binding of serum 6 to linear peptides of protein M of SARS-CoV Urbani: 0.2
  Binding of serum 6 to looped/cyclic peptides of protein M of SARS-CoV Urbani: 0.6
  Binding of serum 37 to linear peptides of protein M of SARS-CoV Urbani: 0.8
  Binding of serum 37 to looped/cyclic peptides of protein M of SARS-CoV Urbani: 0.7
  Binding of serum 62 to linear peptides of protein M of SARS-CoV Urbani: 0.8
  Binding of serum 62 to looped/cyclic peptides of protein M of SARS-CoV Urbani: 0.7
  Binding of serum London to linear peptides of protein M of SARS-CoV Urbani: 0.3
  Binding of serum London to looped/cyclic peptides of protein M of SARS-CoV Urbani: 0.2
  Binding of serum SARS-green to linear peptides of protein M of SARS-CoV Urbani: 0.3
  Binding of serum SARS-green to looped/cyclic peptides of protein M of SARS-CoV Urbani: 0.4
  Binding of serum SARS-yellow to linear peptides of protein M of SARS-CoV Urbani: 0.1
  Binding of serum SARS-yellow to looped/cyclic peptides of protein M of SARS-CoV Urbani: 0.7
[2]
  Binding of Control Serum Blood-Bank to Looped peptides of the protein M of SARS-CoV Urbani: 0.8
  Binding of Control serum Blood-bank to linear peptides of the protein M of SARS-CoV Urbani: 0.7
  Binding of Control serum LUMC to linear peptides of the protein M of SARS-CoV Urbani: 0.5
  Binding of Control serum LUMC to looped peptides of the protein M of SARS-CoV Urbani: 0.8
[3]
  Rabbit serum linear peptides: 0.4
  Rabbit serum looped peptides: 0.5

## AWIMLLQFAYSNRNR
[1]
  Binding of serum 1a to linear peptides of protein M of SARS-CoV Urbani: 0.7
  Binding of serum 1a to looped/cyclic peptides of protein M of SARS-CoV Urbani: 0.7
  Binding of serum 1b to linear peptides of protein M of SARS-CoV Urbani: 0.6
  Binding of serum 1b to looped/cyclic peptides of protein M of SARS-CoV Urbani: 0.7
  Binding of serum 2 to linear peptides of protein M of SARS-CoV Urbani: 0.5
  Binding of serum 2 to looped/cyclic peptides of protein M of SARS-CoV Urbani: 0.6
  Binding of serum 6 to linear peptides of protein M of SARS-CoV Urbani: 0.5
  Binding of serum 6 to looped/cyclic peptides of protein M of SARS-CoV Urbani: 1.1
  Binding of serum 37 to linear peptides of protein M of SARS-CoV Urbani: 0.4
  Binding of serum 37 to looped/cyclic peptides of protein M of SARS-CoV Urbani: 0.6
  Binding of serum 62 to linear peptides of protein M of SARS-CoV Urbani: 0.4
  Binding of serum 62 to looped/cyclic peptides of protein M of SARS-CoV Urbani: 0.6
  Binding of serum London to linear peptides of protein M of SARS-CoV Urbani: 0.3
  Binding of serum London to looped/cyclic peptides of protein M of SARS-CoV Urbani: 0.6
  Binding of serum SARS-green to linear peptides of protein M of SARS-CoV Urbani: 0.6
  Binding of serum SARS-green to looped/cyclic peptides of protein M of SARS-CoV Urbani: 0.4
  Binding of serum SARS-yellow to linear peptides of protein M of SARS-CoV Urbani: 0.2
  Binding of serum SARS-yellow to looped/cyclic peptides of protein M of SARS-CoV Urbani: 0.7
[2]
  Binding of Control Serum Blood-Bank to Looped peptides of the protein M of SARS-CoV Urbani: 0.7
  Binding of Control serum Blood-bank to linear peptides of the protein M of SARS-CoV Urbani: 0.7
  Binding of Control serum LUMC to linear peptides of the protein M of SARS-CoV Urbani: 0.5
  Binding of Control serum LUMC to looped peptides of the protein M of SARS-CoV Urbani: 0.7
[3]
  Rabbit serum linear peptides: 0.3
  Rabbit serum looped peptides: 0.4

## AWLCALGKVLPFHRW
[1]
  Binding of serum 1a to linear peptides of protein X5 of SARS-CoV Urbani: 0.8
  Binding of serum 1a to looped/cyclic peptides of protein X5 of SARS-CoV Urbani: 0.4
  Binding of serum 1b to linear peptides of protein X5 of SARS-CoV Urbani: 0.6
  Binding of serum 1b to looped/cyclic peptides of protein X5 of SARS-CoV Urbani: 0.3
  Binding of serum 2 to linear peptides of protein X5 of SARS-CoV Urbani: 0.8
  Binding of serum 2 to looped/cyclic peptides of protein X5 of SARS-CoV Urbani: 0.5
  Binding of serum 6 to linear peptides of protein X5 of SARS-CoV Urbani: 0.6
  Binding of serum 6 to looped/cyclic peptides of protein X5 of SARS-CoV Urbani: 0.4
  Binding of serum 37 to linear peptides of protein X5 of SARS-CoV Urbani: 0.8
  Binding of serum 37 to looped/cyclic peptides of protein X5 of SARS-CoV Urbani: 0.5
  Binding of serum 62 to linear peptides of protein X5 of SARS-CoV Urbani: 0.9
  Binding of serum 62 to looped/cyclic peptides of protein X5 of SARS-CoV Urbani: 0.7
  Binding of serum London to linear peptides of protein X5 of SARS-CoV Urbani: 0.8
  Binding of serum London to looped/cyclic peptides of protein X5 of SARS-CoV Urbani: 0.2
  Binding of serum SARS-green to linear peptides of protein X5 of SARS-CoV Urbani: 0.6
  Binding of serum SARS-green to looped/cyclic peptides of protein X5 of SARS-CoV Urbani: 0.5
  Binding of serum SARS-yellow to linear peptides of protein X5 of SARS-CoV Urbani: 0.2
  Binding of serum SARS-yellow to looped/cyclic peptides of protein X5 of SARS-CoV Urbani: 0.5
[2]
  Binding of Control Serum Blood-Bank to Looped peptides: 0.4
  Binding of Control serum Blood-bank to linear peptides: 0.9
  Binding of Control serum LUMC to linear peptides: 0.6
  Binding of Control serum LUMC to looped peptides: 0.5
[3]
  Rabbit serum linear peptides: 0.8
  Rabbit serum looped peptides: 0.6
